Assay results from PubChem BioAssay (NCI).
Values joined by “and” are separate entries in the source; they are usually repeats but may differ in a detail not shown here. Equal entries are not always repeated.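 Results reflect a 48-hour exposure of cells in 96-well plates to compound at five concentrations. Abbreviation: GI50, concentration required for 50% inhibition of growth. TGI: total growth inhibition.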

Key:
Test in all cases: inhibition of tumour cell growth, NCI panel, 48 h
MDA-MB-435 = tested on: MDA-MB-435
EKVX NSCLC = tested on: EKVX NSCLC
ACHN renal = tested on: ACHN renal
HCT-15 colon = tested on: HCT-15 colon
M14 melanoma = tested on: M14 melanoma
A498 renal = tested on: A498 renal
RPMI-8226 leukemia = tested on: RPMI-8226 leukemia
SK-OV-3 ovarian = tested on: SK-OV-3 ovarian
SW-620 colon = tested on: SW-620 colon
SR leukemia = tested on: SR leukemia
HS 578T breast = tested on: HS 578T breast
DU-145 prostate = tested on: DU-145 prostate
UACC-257 melanoma = tested on: UACC-257 melanoma
A549 NSCLC = tested on: A549 NSCLC
OVCAR-4 ovarian = tested on: OVCAR-4 ovarian
SNB-19 CNS = tested on: SNB-19 CNS
IGROV1 ovarian = tested on: IGROV1 ovarian

Structure (SMILES) | TGI (MDA-MB-435) | TGI (EKVX NSCLC) | TGI (ACHN renal) [µM] | TGI (HCT-15 colon) | TGI (M14 melanoma) | TGI (A498 renal) | TGI (RPMI-8226 leukemia) | TGI (SK-OV-3 ovarian) | TGI (SW-620 colon) | TGI (SR leukemia) | TGI (HS 578T breast) | TGI (DU-145 prostate) | TGI (UACC-257 melanoma) | TGI (A549 NSCLC) | TGI (OVCAR-4 ovarian) [µM] | TGI (SNB-19 CNS) | TGI (IGROV1 ovarian) | GI50 (MDA-MB-435) | GI50 (EKVX NSCLC) | GI50 (A549 NSCLC)
Cc1ccc2c(c1)C(=C(C#N)C#N)CCCS2(=O)=O | > 100 µM | > 100 µM | > 100 | > 100 µM | > 100 µM | > 100 µM | > 100 µM | > 100 µM | > 100 µM | > 100 µM | > 100 µM | > 100 µM | > 100 µM | > 100 µM | > 100 | > 100 µM | > 100 µM | – | – | –
CCOC(=O)c1cc(C2CCN(c3ccccc3)C2=O)c(/C(O)=C/C(C)=O)[nH]1 (stereo not given) | > 100 µM | > 100 µM | > 100 | > 100 µM | > 100 µM | > 100 µM | > 100 µM | > 100 µM | > 100 µM | > 100 µM | > 100 µM | > 100 µM | > 100 µM | > 100 µM | > 100 | > 100 µM | > 100 µM | – | – | –
CC(C)[N+]([O-])(CCCNc1c2ccccc2nc2cccc([N+](=O)[O-])c12)C(C)C | 0.0758 µM | 0.528 µM | 0.44 | 1.58 µM | 0.305 µM | 0.289 µM | 0.0875 µM | 2.08 µM | 4.9 µM | 1.15 µM | 0.402 µM | 0.133 µM | 0.333 µM | 2.53 µM | 0.433 | 5.17 µM | 0.488 µM | – | – | –
O=c1ccc2ccc(OP(=O)(O)O)cc2o1 | > 100 µM | > 100 µM | > 100 | > 100 µM | > 100 µM | > 100 µM | > 100 µM | > 100 µM | > 100 µM | > 100 µM | > 100 µM | > 100 µM | > 100 µM | > 100 µM | > 100 | > 100 µM | > 100 µM | – | – | –
COC(=O)CCC(=O)c1ccc2c(c1)CCC2 | > 100 µM | > 100 µM | > 100 | > 100 µM | > 100 µM | > 100 µM | > 100 µM | > 100 µM | > 100 µM | > 100 µM | > 100 µM | > 100 µM | > 100 µM | > 100 µM | > 100 | > 100 µM | > 100 µM | – | – | –
Cc1cc(NC2=CC(=O)C(=O)c3ccccc32)no1 | 3.34 µM | 31.5 µM | 25.8 | 19 µM | 28.3 µM | 33.1 µM | 32.5 µM | 40.3 µM | 14.6 µM | > 48.1 µM | 40.9 µM | 30.1 µM | 16.7 µM | 19.4 µM | 21.4 | 31.9 µM | 21.8 µM | – | – | –
CC(=O)O[C@@H]1C[C@]2(C(=O)c3ccccc3)C(=O)C(=O)S[C@]12c1ccccc1 | > 100 µM | > 100 µM | > 100 | > 100 µM | > 100 µM | > 100 µM | 99.4 µM | > 100 µM | > 100 µM | 83.1 µM | > 100 µM | > 100 µM | > 100 µM | > 100 µM | > 100 | > 100 µM | > 100 µM | – | – | –
CN1C(=O)C2(C)SC1(c1ccccc1)C1C(=O)N(c3ccccc3)C(=O)C12 (stereo not given) | > 100 µM | > 100 µM | > 100 | > 100 µM | > 100 µM | > 100 µM | > 100 µM | > 100 µM | > 100 µM | > 100 µM | > 100 µM | > 100 µM | 93.3 µM | > 100 µM | > 100 | > 100 µM | > 100 µM | – | – | –
CC1OC(OC2C(OC(=O)[C@]34CCC(C)(C)C[C@H]3C3=CC[C@@H]5[C@@]6(C)CC[C@H](OC7OC(C(=O)O)C(O)C(O)C7O)C(C)(C)[C@@H]6CC[C@@]5(C)[C@]3(C)C[C@H]4O)OCC(O)C2O)C(O)C(O)C1OC1OCC(O)C(O)C1O (stereo not given in full) | 30.3 µM and 18.2 µM | 21.3 µM and 13 µM | 21.5 | 31.6 µM and 33.7 µM | 28.1 µM and 21.6 µM | 6.22 µM and 3.63 µM | 30.4 µM and 94 µM | 33.1 µM and 32 µM | 32.8 µM and 27.7 µM | 23 µM and > 100 µM | 39.5 µM and 39.3 µM | 28.9 µM and 27.4 µM | 32.6 µM and 34.1 µM | 25.3 µM and 20.4 µM | 31.7 | 25.8 µM and 23.8 µM | 31.5 µM and 27.8 µM | 16 µM and 5.32 µM | 7.47 µM and 3.7 µM | 11.8 µM and 5.48 µM
Cc1ccc([N+](=O)[O-])cc1S(=O)(=O)Nc1ccc(C2=NN(S(=O)(=O)c3cc([N+](=O)[O-])ccc3C)C(c3ccccc3)C2)cc1 (stereo not given) | > 100 µM | > 100 µM | > 100 | > 100 µM | 98.1 µM | 82.6 µM | 76.1 µM | > 100 µM | > 100 µM | > 100 µM | 21.2 µM | > 100 µM | 74.7 µM | > 100 µM | > 100 | > 100 µM | > 100 µM | – | – | –
C=CCN(c1cc(OC)c(NC(C)=O)cc1[N+](=O)[O-])S(C)(=O)=O | > 100 µM | > 100 µM | > 100 | > 100 µM | > 100 µM | > 100 µM | > 100 µM | > 100 µM | > 100 µM | > 100 µM | > 100 µM | > 100 µM | > 100 µM | > 100 µM | > 100 | > 100 µM | > 100 µM | – | – | –
CCOC(=O)C1(C#N)OC(=O)c2cnccc21 (stereo not given) | > 100 µM | > 100 µM | > 100 | > 100 µM | > 100 µM | > 100 µM | > 100 µM | > 100 µM | > 100 µM | > 100 µM | > 100 µM | > 100 µM | > 100 µM | > 100 µM | > 100 | > 100 µM | > 100 µM | – | – | –
COc1cc2c(cc1OC)OC(c1c(OC)ccc(OC)c1O)CC2 (stereo not given) | > 100 µM | > 100 µM | > 100 | > 100 µM | > 100 µM | > 100 µM | > 100 µM | > 100 µM | > 100 µM | > 100 µM | > 100 µM | > 100 µM | > 100 µM | > 100 µM | > 100 | > 100 µM | > 100 µM | – | – | –
CCn1cc2c(=O)n3ncn(-c4ccc(Br)cc4)c3nc2n1 | > 100 µM | > 100 µM | > 100 | > 100 µM | > 100 µM | > 100 µM | > 100 µM | > 100 µM | > 100 µM | > 100 µM | > 100 µM | > 100 µM | > 100 µM | > 100 µM | > 100 | > 100 µM | > 100 µM | – | – | –
Cc1ccc(O)c(C(c2cccc(C(c3cc(C)ccc3O)c3cc(C)ccc3O)c2)c2cc(C)ccc2O)c1 | 3.26 µM | 3.63 µM | 3.13 | 3.31 µM | 3.45 µM | 2.97 µM | 3.31 µM | 3.42 µM | 3.2 µM | 7.55 µM | 4.01 µM | 2.84 µM | 3.86 µM | 4 µM | 3.73 | 3.34 µM | 3.02 µM | – | – | –
Oc1c(Br)cc(/C=C/c2ccnc(/C=C/c3cc(Br)c(O)c(Br)c3)c2)cc1Br | 63 µM | 56.4 µM | > 100 | 73 µM | 54.9 µM | 54.4 µM | 51.6 µM | > 100 µM | > 100 µM | 45.9 µM | > 100 µM | 39.1 µM | 66.7 µM | 77 µM | 87.2 | > 100 µM | > 100 µM | – | – | –
CN=C1Nc2ccccc2C(=O)N2CSCC12 (stereo not given) | > 100 µM | > 100 µM | > 100 | > 100 µM | > 100 µM | > 100 µM | > 100 µM | > 100 µM | > 100 µM | > 100 µM | > 100 µM | > 100 µM | > 100 µM | > 100 µM | > 100 | > 100 µM | > 100 µM | – | – | –
CCOC1CN=C(Nc2cccc3ccccc23)S1 (stereo not given) | > 10 µM | > 10 µM | > 10 | > 10 µM | > 10 µM | > 10 µM | > 10 µM | > 10 µM | > 10 µM | > 10 µM | > 10 µM | > 10 µM | > 10 µM | > 10 µM | > 10 | > 10 µM | > 10 µM | – | – | –
CCN1CCC(O)(c2ccc(Oc3ccc(Cl)cc3)cc2)C(C(=O)c2ccc(Oc3ccc(Cl)cc3)cc2)C1 (stereo not given) | 38.8 µM | 34.5 µM | 28.2 | 19.9 µM | 28.3 µM | 23.4 µM | 10.9 µM | 38.9 µM | 50.9 µM | > 100 µM | 58.5 µM | 34.3 µM | 27.1 µM | 20.3 µM | 32.7 | 29.3 µM | 23.5 µM | – | – | –
COc1ccc(S(=O)(=O)N2C(=O)CCC2C(=O)NC(N)=O)cc1 (stereo not given) | > 100 µM | > 100 µM | > 100 | > 100 µM | > 100 µM | > 100 µM | > 100 µM | > 100 µM | > 100 µM | > 100 µM | > 100 µM | > 100 µM | > 100 µM | > 100 µM | > 100 | > 100 µM | > 100 µM | – | – | –
CNC(=O)C(C)NC(=O)C(Cc1ccccc1)NC(=O)c1ccccc1 (stereo not given) | > 100 µM | > 100 µM | > 100 | > 100 µM | > 100 µM | > 100 µM | > 100 µM | > 100 µM | > 100 µM | > 100 µM | > 100 µM | > 100 µM | > 100 µM | > 100 µM | > 100 | > 100 µM | > 100 µM | – | – | –
